# Measured values as given in US20220401385A1, “Combination Therapy Based on PD-1 Signaling Inhibitors” (Kyoto University, priority 2019, published 2022).
# Key:
# [1] = test system: draining lymph node CD8+ T cells; assay: Seahorse OCR/ECAR of draining lymph node CD8+ T cells of treated mice; format: in vivo, C57BL/6 mice; settings: combined therapy compared to PD-1 inhibition alone
# Experimental: (§1) FIG. 2-1 a) Treated mice were analyzed for draining lymph nodes and the inside of tumor. Briefly, draining lymph nodes of mice were isolated 13 days after tumor inoculation, and stained with antibodies to CD8 and Sca-1. FACS diagram and percentages of Sca-1^+ cells in CD8^+ T cells are shown. b) CD8^+ T cells in isolated draining lymph nodes were stimulated with CD3/CD28 antibody beads. After 24 hours, cell proliferation was examined by means of ^3H uptake. At the same time, IFN-γ concentration in culture supernatant was measured. c) Tumor from the same mice as described above was treated with collagenase. Then, expression rates of PD-1 and Tim3 in tumor-infiltrating CD8^+ T cells were analyzed. d) Oxygen consumption rate (OCR) and extracellular acidification rate (ECAR) of draining lymph node CD8^+ T cells were measured with a Seahorse analyzer (N=3 wells). For statistical analysis, ANOVA was used. * p<0.05, ** p<0.01, *** p<0.001, **** p<0.0001.
# Oxygen consumption rates were measured using an XF96 Extracellular Flux Analyzer (Seahorse Bioscience). CD8^+ T cells (4×10^5) per well were seeded in a determined XF96 plate. The four chemical modulators of mitochondrial oxidative phosphorylation, which came with an XF Cell Mito Stress Test Kit (Seahorse Bioscience), were added to the module sequentially. In brief, basal OCR measurement was performed […] sequential addition of oligomycin, FCCP, and rotenone/antimycin A. SRC and ATP production rates were calculated by the following formulas:
# SRC (pmo; 02/min)=OCRmaximal−OCRbasal
# mitoATP (pmol ATP/min)=(OCRbasal−OCRoligo)×5.5.
# CD8+ T cells = assay: Flow cytometry of draining lymph node and tumor-infiltrating CD8+ T cells of treated MC38 mice; format: in vivo, C57BL/6 mice
# Experimental: FIG. 1-1 a) CD8^+ T cells or CD3^+ T cells were isolated from mice, and 2×10^5 cells were stimulated with CD3/CD28 beads in 96-well U plates. After 24 hours and 48 hours, cells and culture supernatant were collected, followed by measurement of spermidine (SPD) concentration by mass spectrometry. […] Ten days after inoculation, PD-L1 antibody (2 mg/kg), PD-L1 antibody+SPD (2 mg/kg), or SPD alone was administered. Subsequently, PD-L1 antibody was administered 4 times at a regular interval of 5 days, and SPD was administered 8 times at a regular interval of 3 days. Tumor growth curve and survival curve are shown. c) Draining lymph nodes (DLNs) of mice were isolated 13 days after tumor inoculation, and stained with antibodies to CD8, CD44 and CD62L. The number of cells in draining lymph node (cells/DLN) in each treatment group is shown at the left side. After being gated, CD8^+ T cells were fractionated with CD44 and CD62L into P1 to P4 cell populations. Percentages and cell numbers of P1 to P4 in each treatment group are shown. d) Tumor was isolated 13 days after tumor inoculation and treated with collagenase. Percentages and numbers per mg tumor of tumor-infiltrating CD8^+ CD45.2^+ cells are shown. For statistical analysis, ANOVA was used. * p<0.05, ** p<0.01, *** p<0.001, **** p<0.0001.
# as §1
# For analyzing draining lymph nodes, cells from axillary, brachial, and inguinal lymph nodes on the right side of tumor-inoculated mice were harvested and mixed. Averaged cell numbers per one lymph node were used as absolute cell numbers. For tumor analysis, tumor tissues were minced into 2- to 3-mm pieces with scissors and digested with collagenase type IV (Thermo Fisher Scientific) using a gentle MACS Dissociator (Miltenyi Biotec). The numbers of tumor cells per mg were used as absolute numbers.
# The following antibodies recognizing the indicated antigens were used: CD44 (1M7), CD45.2 (104), CD45.1 (A20), CD8 (53-6.7), CD62L (MEL-14) and Sca-1 (D7) from BioLegend. All flow cytometry experiments were performed on FACS Canto II (BD Biosciences) and analyzed using FlowJo software (FLOWJO, LLC). Apoptosis assay was performed with PI (Sigma) and Annexin (BioLegend) following the instructions on the kits.
# CD44 low CD8+ T cells [2] = assay: Mitochondria-related proteomics in vitro, CD44 low cells; format: cell-based, mice; settings: late phase, 44 hours after SPD stimulation
# Experimental: FIG. 6 CD8^+ T cells were isolated from the spleen of mice without tumor inoculation, and further isolated into CD44^+ (CD44 high) and CD44^− (CD44 low) cell populations. CD44 low cells and CD44 high cells were simulated with CD3/CD28 antibody beads and SPD (0.2 μM). After 1 hour and 44 hours, cells were collected and proteomics analyses regarding mitochondria-related proteins were conducted. A heat map showing the categories of respective signaling pathways, associated protein names and comparison of their expression levels is given.
# T cells were prepared by two methods. For in vivo analysis, 13 days after tumor inoculation and 3 days after the start of therapy, draining lymph nodes from 5 mice were pooled, followed by isolation of CD8^+ T cells. From the isolated CD8^+ T cells, three samples each consisting of 1×10^6 cells were prepared and used for analysis. For in vitro experiments, 2×10^5 CD8^+ T cells stimulated with 0.2 μM spermidine for 1 hour were used. For mass spectrometry analysis, a Tandem Mass Tag (TMT) system or a Data Independent Acquisition (DIA) system was used. In the analysis of in vivo CD8^+ T cells (FIG. 3), those proteins which increased by 1.5-fold or more or decreased by 0.6-fold or less were extracted.
# CD44 low CD8+ T cells [3] = assay: Observation of mitochondria under electron microscope, CD44 low cells; format: cell-based, mice; settings: SPD 0.2 μM, 1 hour
# Experimental: FIG. 5 CD8^+ T cells were isolated from the spleen of mice without tumor inoculation, and further isolated into CD44^+ (CD44 high) and CD44^− (CD44 low) cell populations. a) CD44 low cells were simulated with CD3/CD28 antibody beads and SPD (0.2 μM). […] Protein expression levels after 1 hour and 2 hours were confirmed by western blotting with the respective indicated antibodies. As regards statistical analysis, t-test was used for comparison of two groups. * p<0.05, ** p<0.01, *** p<0.001, **** p<0.0001.
# CD8^+ T cells (2×10^5) were stimulated with 0.2 μM spermidine for 1 hour. Then, cells were harvested, embedded in Ipgell (GenoStaff) and fixed with 4% paraformaldehyde and 2% glutaraldehyde. Images were taken with a transmission electron microscope (TEM). Mitochondrial size was determined with ImageJ software. As regards mitochondrial number, average numbers in single cell were determined with Prism software. Blind testing was used for observation and analysis of mitochondria.
# [4] = SPD + PD-1 inhibitory antibody, 13 days after tumor inoculation
# [5] = combination therapy, 13 days after tumor inoculation
smiles,measurement,setting,value
"NCCCCNCCCN [SPD, spermidine]",glycolysis (ECAR) of CD8+ T cells,[1],increased
same,oxygen consumption (OCR) of CD8+ T cells,[1],increased
same,spare respiratory capacity (SRC) of CD8+ T cells,[1],increased
same,absolute number of effector T cells (P3) in draining lymph nodes,CD8+ T cells; [4],increase
same,cell number of the draining lymph nodes,CD8+ T cells; [4],increase
same,frequency of effector T cells (P3) in draining lymph nodes,CD8+ T cells; [4],increase
same,expression of Sca-1 (activation marker) in draining lymph node CD8+ T cells,CD8+ T cells; combination therapy using SPD,enhanced
same,"frequency of exhausted CD8+ T cells (CD8+ PD-1+ Tim-3+), tumor-infiltrating",CD8+ T cells; combination therapy using SPD,decreased significantly
same,frequency of tumor-infiltrating CD8+ T cells,CD8+ T cells; [5],increased
same,number of tumor-infiltrating CD8+ T cells,CD8+ T cells; [5],increased
same,expression levels of mitochondrial proteins and proteins of mitochondria-related metabolism,CD44 low CD8+ T cells [2],high
same,mitochondrial size,CD44 low CD8+ T cells [3],no change
same,structure of cristae,CD44 low CD8+ T cells [3],denser structures of cristae
